Measurements taken from patent US20080131920A1, “Ion flux in biological processes, and methods related thereto” (priority 2005, published 2008).

What was measured:
primitive streak cells = experiment: Cellular pH imaging of early chick blastoderm with SNARF-1-AM; assay type: in vivo
[1] = system: H+ flux from living early blastomeres; experiment: Self-referencing ion-selective (Seris) probe measurement of H+ flux; design: species or system Xenopus laevis; conditions: in vivo
Description: We examined ion flux using a self-referencing ion probe to measure H^+ flux from living early blastomeres. The H^+-V-ATPase endogenously acts to pump protons out of the cell (e.g., it mediates proton efflux). We note, however, that other ion transporters modulate influx of ions. The term ion flux refers to movement of ions across membranes, regardless of the direction. The techniques provided herein can be used to evaluate changes in either ion efflux or influx, and thus can generally be used to evaluate ion flux and changes in ion flux following manipulation of an ion transporter protein or a class of ion transporter proteins.
To confirm that the asymmetric efflux was due to asymmetric H^+-V-ATPase function, we compared H^+ efflux in control embryos to efflux from embryos treated with a variety of ion flux inhibitors.
The self-referencing ion-selective (Seris) probe consists of an ion selective microelectrode that is translated between two points in the extracellular space near the plasma membrane of a cell. If a net flux of ion into or out of the cell is detected, the resultant concentration gradient will be detected as a voltage difference from which the ion flux through the membrane can be calculated. […]. […]

[2] = system: Sonic hedgehog (Shh), Nodal; experiment: Sidedness of Shh and Nodal expression in chick embryos (in ovo culture, in situ hybridization); conditions: in vivo
Description: We examined the effect of inhibiting H^+-V-ATPase activity on the expression of the early left-sided marker Sonic hedgehog (Shh). Inhibition of H^+-V-ATPase activity following treatment with concanamycin or DCCD specifically randomized the expression of Shh, as well as that of and the downstream marker Nodal. Compared to controls, in which these two markers are always left-sided, concanamycin induced aberrant sidedness of Shh expression in 67% and Nodal in 24% of embryos. Thus, as in Xenopus, H^+-V-ATPase is upstream of the known asymmetric gene cascade, and is required for normal LR patterning in chicks.
To perform a pharmacological screen on chick embryos with minimal disturbance to normal morphogenesis, we optimized a chicken in ovo culture system. A small hole was made on the top of each egg (prior to incubation), and 5 ml of light albumin was removed. […]. Eggs were securely wrapped with Scotch tape, incubated at 37.5° C. to the desired stages, then fixed for analysis of laterality markers by in situ hybridization.
Whole mount in situ hybridization (WISH) on Xenopus was performed according to standard methods. DNA used to transcribe in situ hybridization probes were XNr-1 (Lohr et al., 1998, Developmental Genetics 23: 194-202; Lowe et al., 1996, Nature 381: 158-161); cShh (Levin et al., 1995, Cell 82: 803-814); cNodal (Levin et al., 1995, Cell 82: 803-814).

activated caspase-3 = experiment: Activated caspase-3 localization (apoptosis) in regenerating tails; assay type: in vivo, Xenopus laevis; conditions: V-ATPase-inhibited larvae
Procedure: Further experiments were done in the Xenopus system based on the results of the pharmacological screen (see Example 6). […] The V-ATPase (Nishi, 2002, Nature Reviews Molecular Cell Biology 3: 94-103) generates strong pH and voltage gradients at the expense of ATP, when expressed in vesicular or cell plasma membranes.
Xenopus larvae were fixed overnight in MEMFA, heated for 2 hrs at 65° C. in 50% formamide (to inactivate endogenous alkaline phosphatases; this procedure was not done when using fluorescent secondary antibodies), permeabilized in PBTr+0.1% Triton X100 for 30 min, and processed for immunohistochemistry using alkaline phosphatase secondary antibody (Levin, 2004, Journal of Biochemical and Biophysical Methods 58: 85-96) until signal was optimal and background minimal (usually 12 hrs). […] Anti-KCNK1 (a generous gift of Dr. S. A. Goldstein and D. Bockenhauer) was used at 1:500. The 12-101 muscle marker (Gurdon et al., 1985, Cell 41: 913-22; Kintner and Brockes, 1984, Nature 308: 67-9) was used at 1:1 dilution; this monoclonal antibody developed by Jeremy P. Brockes was obtained from the Developmental Studies Hybridoma Bank developed under the auspices of the NICHD and maintained by The University of Iowa, Department of Biological Sciences, Iowa City, Iowa 52242.

Xenopus embryos = assay type: in vivo; conditions: treated from fertilization to stage 7; organs scored at stage 45
[3] = system: Xenopus tail regeneration

C/C=C/[C@H]1O[C@@](O)([C@@H](C)[C@H](O)[C@H](C)[C@H]2OC(=O)/C(OC)=C/C(C)=C/[C@@H](C)[C@@H](O)[C@@H](CC)[C@@H](O)[C@H](C)C/C(C)=C/C=C/[C@@H]2OC)C[C@@H](O)[C@@H]1C [concanamycin]
pH of cells in the primitive streak (primitive streak cells): lowered the pH
left/right asymmetry in the proton fluxes [1]: eliminated
proton efflux on the right side [1]: about half of its original value
aberrant sidedness of Nodal expression, % of embryos [2]: 24%
aberrant sidedness of Shh expression, % of embryos [2]: 67%
expression of Shh and Nodal (sidedness) [2]: randomized
degree of apoptosis vs control (activated caspase-3): no significant difference
heterotaxia, % of the embryos (Xenopus embryos): 35%
general toxicity ([3]; 150 nM): absence of general toxicity
effect on tail regeneration ([3]; 150 nM, larvae amputated at stage 41): strong inhibition of regeneration
effect on rate or extent of tail regeneration ([3]; compound in medium beginning immediately after tail amputation (stage 40-41)): absence of regeneration
Regeneration Index Treated/Control ([3]; tail regeneration in the compound versus control): 23%
Regeneration Index Treated ([3]; tail regeneration in the compound, RI computed for each dish of embryos): 49
